Patent US10519167B2, “3-oxa-8-azabicyclo[3.2.1]octane derivatives and their use in the treatment of cancer and hemoglobinopathies” (CTXT PTY LTD, priority 2016, dated 2019)
Structures can show the parent of a compound that is named as a salt.

Legend:
[1] = molecular target: Full-length PRMT5 enzyme co-expressed with His6-MEP50 (Homo sapiens (Human), UniProt O14744); assay: PRMT5 Biochemical Assay; details: Transcreener EPIGEN methyltransferase assay, histone H4 derived peptide substrate, 4 hours at 37 degree Celsius
Full-length PRMT5 enzyme co-expressed with His6-MEP50, sequence (O14744 whole entry): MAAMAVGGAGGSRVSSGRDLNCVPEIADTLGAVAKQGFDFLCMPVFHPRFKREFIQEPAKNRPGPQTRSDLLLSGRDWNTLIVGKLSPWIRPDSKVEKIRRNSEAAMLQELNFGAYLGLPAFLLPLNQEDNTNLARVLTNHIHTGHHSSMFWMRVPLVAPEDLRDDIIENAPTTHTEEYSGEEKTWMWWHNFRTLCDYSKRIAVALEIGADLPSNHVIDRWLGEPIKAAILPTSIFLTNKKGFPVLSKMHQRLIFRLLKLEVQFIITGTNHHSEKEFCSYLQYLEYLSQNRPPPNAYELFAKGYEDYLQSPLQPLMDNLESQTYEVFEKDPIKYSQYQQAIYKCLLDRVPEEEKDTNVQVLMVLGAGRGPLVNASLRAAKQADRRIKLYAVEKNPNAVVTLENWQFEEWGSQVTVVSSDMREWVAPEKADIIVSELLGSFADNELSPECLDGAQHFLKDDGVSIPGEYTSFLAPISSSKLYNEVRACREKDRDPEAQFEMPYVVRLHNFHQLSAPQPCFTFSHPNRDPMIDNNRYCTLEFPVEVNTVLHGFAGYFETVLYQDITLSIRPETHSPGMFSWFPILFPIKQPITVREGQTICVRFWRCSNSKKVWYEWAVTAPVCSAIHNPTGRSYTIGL
Full-length PRMT5 enzyme co-expressed with His6-MEP50, sequence (Q9BQA1 whole entry partner): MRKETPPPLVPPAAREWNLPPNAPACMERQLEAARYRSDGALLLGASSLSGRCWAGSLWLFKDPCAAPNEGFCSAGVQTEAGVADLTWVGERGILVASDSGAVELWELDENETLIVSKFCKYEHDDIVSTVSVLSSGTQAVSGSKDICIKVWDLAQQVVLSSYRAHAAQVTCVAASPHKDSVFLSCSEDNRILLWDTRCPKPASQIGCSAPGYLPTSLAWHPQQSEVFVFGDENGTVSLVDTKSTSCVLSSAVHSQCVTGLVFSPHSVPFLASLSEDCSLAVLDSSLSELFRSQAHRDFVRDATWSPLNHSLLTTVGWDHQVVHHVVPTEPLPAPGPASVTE
Experimental: Compounds of the invention may be tested for in vitro activity in the following assay:
A histone H4 derived peptide is used as substrate (amino acid sequence: […]NH2). Full-length PRMT5 enzyme (NCBI Reference sequence NP_006100.2) was co-expressed with His6-MEP50 in insect cells and purified via Nickel immobilized metal affinity and gel filtration chromatography (“the enzyme”).
The 6 μL reactions are run in Greiner brand black 384-well low volume assay plates. All reactions contained assay buffer (phosphate buffered saline, 0.01% (v/v) Tween-20, 0.01% (w/v) albumin from chicken egg white, 1 mM Dithiothreitol, 1 μM peptide substrate, 1 μM S-Adenosyl methionine, and 15 ng/reaction enzyme, with the enzyme being omitted from negative control reactions. Compounds were added in a volume of 100 nL from dilution series prepared in DMSO, positive and negative control reactions receiving the same volume DMSO without compound. The plates were sealed with adhesive seals and incubated for 4 hours at 37 degree Celsius. Reaction progress was measured using the Transcreener™ EPIGEN methyltransferase assay (BellBrook Labs, Madison, Wis.) as recommended by the manufacturer. To each reaction 2 μL detection mix were added, containing coupling enzymes, fluorescence polarisation tracer, and AMP antibody. Plates were incubated for 90 minutes before being read on a PerkinElmer EnVision™ plate reader in fluorescence polarisation mode. IC50 values were obtained from the raw readings by calculating percent inhibition (% I) for each reaction relative to controls on the same plate (% I=(I−CN)/(CP−CN) where CN/CP are the averages of the negative/positive reactions, respectively), then fitting the % I data vs. compound concentration [I] to % I=(A+((B−A)/(1+((C/[I]^D)))) where A is the lower asymptote, B is the upper asymptote, C is the IC50 value, and D is the slope.

TE11 cell line = assay: PRMT5 Biomarker Assay (symmetrical dimethylation of arginine, Histone H4 Arginine 3); format: cell-based; details: Homo sapiens, TE-11; TE11 cells, 72 hours incubation, Di-Methyl Histone H4 Arginine 3 level
Experimental: Compounds of the invention may be tested for potency to inhibit symmetrical dimethylation of arginine in the following assay:
The cell line TE11 was seeded at a density of 6,000 cells per well in 96 well optical quality tissue culture plates in DME medium and 10% foetal bovine serum, and allowed to adhere for 5 hours under standard culture conditions (37 degree Celsius, 5% CO2). Compound dilutions prepared in DMSO were added to the medium, with negative control wells reserved for treatment with DMSO only and maximum inhibition controls receiving a potent PRMT5 inhibitor compound at 1 μM concentration. After incubation for 72 hours, the cells were fixed with 3.7% formaldehyde in PBS for 30 minutes at room temperature, washed with phosphate buffer saline and blocked with Odyssey blocking buffer (LI-COR, Lincoln, Nebr.). Rabbit anti-Di-Methyl Histone H4 Arginine 3 specific antibody (Epigentek) in Odyssey blocking buffer was added and incubated for 14 hours at 4 degree Celsius. After washing, anti-rabbit secondary antibody labelled with Alexa647 dye (LifeTechnologies) and Hoechst 33342 (1 μg/mL, SigmaAldrich) were added for 1 hour incubation. Plates were washed and read on a PerkinElmer Envision 2103 in fluorescence intensity scanning mode (24 scans across the well area). The plates were imaged on a PerkinElmer Phenix high content imaging platform. Using a Columbus image analysis pipeline, individual nuclei were located by Hoechst 33342 stain and the methylation level was calculated from the Alexa647-related intensity in the same area. IC50 values were obtained from the mean Alexa647-related intensity per cell by calculating percent inhibition (% I) for each well relative to controls on the same plate (% I=(I−CN)/(CP−CN) where CN/CP are the averages of the negative/maximum inhibition controls, respectively), then fitting the % I data vs. compound concentration [I] to % I=(A+((B−A)/(1+((C/[I])^D)))) where A is the lower asymptote, B is the upper asymptote, C is the IC50 value, and D is the slope.

Row | SMILES | IC50 [1] [nM] | IC50 (TE11 cell line) [nM]
1 | CCOc1cc(C(=O)N2C3CCC2COC3)ccc1C(=O)N(C)C[C@@H](O)[C@@H]1Cc2ccccc2CN1 [Compound 3, 4-(3-Oxa-8-azabicyclo[3.2.1]octane-8-carbonyl)-2-ethoxy-N—((R)-2-hydroxy-2-((S)-1,2,3,4-tetrahydroisoquinolin-3-yl)ethyl)-N-methylbenzamide Hydrochloride] | 36 | 11.7
2 | CCOc1cc(C(=O)N2C3COCC2CC(O)C3)ccc1C(=O)NC[C@@H](O)CNC1Cc2ccccc2C1 (stereo partly drawn) [Compound 2, N—((S)-3-((2,3-Dihydro-1H-inden-2-yl)amino)-2-hydroxypropyl)-2-ethoxy-4-(7-hydroxy-3-oxa-9-azabicyclo[3.3.1]nonane-9-carbonyl)benzamide] | 19 | 0.6
3 | CCOc1cc(C(=O)N2C3COCC2CC(O)C3)ccc1C(=O)NC[C@@H](O)[C@@H]1Cc2ccccc2CN1 (stereo partly drawn) [Compound 1, 2-Ethoxy-N—((R)-2-hydroxy-2-((S)-1,2,3,4-tetrahydroisoquinolin-3-yl)ethyl)-4-(7-hydroxy-3-oxa-9-azabicyclo[3.3.1]nonane-9-carbonyl)benzamide Hydrochloride] | 19 | 3.9
